Laboratory results reported in PMC7395068, “The evolution of strategies to minimise the risk of human drug-induced liver injury (DILI) in drug discovery and development” (Archives of Toxicology, 2020).
Like-named read-outs stand apart in the source and are kept apart here.

Experiments:
[1] = system: HepG2 cells, primary human hepatocytes; conditions: In vitro Assay; ref Garside 2014; cited from earlier work
HepG2 cells [2] = conditions: cited from earlier work
[3] = Plasma free fraction (fu) and unbound Cmax (Cmax,u); format: in vitro ADME, human; conditions: unbound plasma Cmax
Description: The prediction of DILI severity was evaluated further using the 3D combined HCI assays using plasma-free fraction. The majority of fu values were obtained from literature, when unavailable in-house prediction was utilised. Unbound plasma Cmax concentrations (Cmax,u) were derived by multiplying total plasma Cmax with the corresponding free fraction (fu) for each compound.

[4] = cited from earlier work
[5] = cited from earlier work; remark: listed apart in the source
[6] = read-out: Human plasma Cmax; total plasma Cmax.tot, median of 9 literature references; cited from earlier work
[7] = plasma free fraction; cited from earlier work
[8] = system: THLE or HepG2 cells, isolated mitochondria, BSEP; conditions: cited from earlier work
hLiMTs [9] = conditions: cited from earlier work
[10] = system: HepG2 C3A spheroid, BSEP, Glu/Gal in HepG2 cells, bioactivation; conditions: cited from earlier work
PHH spheroids = conditions: cited from earlier work
HepG2 cells [11] = conditions: cited from earlier work; remark: listed apart in the source
[12] = system: THLE-Null and THLE-3A4 cells; conditions: In vitro Assay; ref Gustafsson 2014; cited from earlier work
HepG2 cells [13] = conditions: cited from earlier work; remark: listed apart in the source
[14] = ref Chen 2011; cited from earlier work
human hepatocytes = conditions: cited from earlier work
PHH = conditions: cited from earlier work
Upcyte human hepatocytes = conditions: In vitro Assay; ref Tolosa 2019; cited from earlier work
rBsep = conditions: cited from earlier work
HepaRG spheroids = experiment: Combined HCI (HCS) and cellular ATP 3D assay in HepaRG spheroids; conditions: for AC50 / minimal effective concentration: Homo sapiens
hLiMTs [15] = experiment: Combined HCI (HCS) and cellular ATP 3D assay in hLiMTs; conditions: for AC50 / minimal effective concentration: Homo sapiens
[16] = Modeled in vitro assays (cytotoxicity, mitochondrial dysfunction, BSEP), ref Aleo et al. 2019
[17] = In vitro Assay, ref Proctor 2017
[18] = In vitro Assay, ref Persson 2013
[19] = Microtissue model structural based (HCI), combined HCS and ATP, MEC < 25 × Cmax.tot cut-off

## CN(C)CCCN1c2ccccc2Sc2ccc(Cl)cc21 [chlorpromazine, reference compound]
[1]
  Cluster 1-6 +VE Assay: +VE
HepG2 cells [2]; In vitro Assay, ref O'Brien 2006
  Structural based (HCI): +VE
HepG2 cells [2]; Structural based (HCI), HepG2, ref O'Brien et al. 2006
  DILI in vitro assay prediction, O'Brien (2006): +VE (lowest HCI endpoint IC50 (or in the absence of dose–response < 100 µM) < 30 × total human plasma exposure levels (Cmax.tot))
[3]
  Human plasma Cmax,u: 47 nM
[4]; Chen et al. 2016 or literature alignment, ref Chen et al. 2016
  Assigned DILI category: 2
[4]; […]
  In vivo DILI: +VE
[4]; ref Aleo 2019
  In vivo DILI: +VE
[4]; ref Dawson 2012
  In vivo DILI: +VE
[4]; ref Garside 2014
  In vivo DILI: +VE
[4]; ref Gustafsson 2014
  In vivo DILI: +VE
[4]; ref O'Brien 2006
  In vivo DILI: +VE
[4]; ref Persson 2013
  In vivo DILI: +VE
[4]; ref Proctor 2017
  In vivo DILI: +VE
[4]; ref Tolosa 2012
  In vivo DILI: +VE
[4]; ref Tolosa 2019
  In vivo DILI: +VE
[4]; ref Vorrink 2018
  In vivo DILI: +VE
[4]; ref Williams 2019
  In vivo DILI: +VE
[4]; ref Xu 2008
  In vivo DILI: +VE
[5]; LTKB DILIrank category, ref Chen et al. 2016
  DILI severity category (Chen et al. [2016]): Less
[5]; human DILI classification, LTKB DILIrank, ref Chen et al. 2016
  DILI severity category (Chen 2016): Less
[5]; human DILI severity, ref Chen et al.
  DILI severity category: Less
[5]; ref Chen 2016
  DILI +VE (5-8), DILI -VE (-4): +VE
  DILI severity category: vLess-DILI-Concern
[6]
  Cmax: 941 nM
[7]
  fu: 0.050
[8]; In vitro Assay, ref Aleo 2019
  Partition Hybrid HRM Score: +VE
  Ro2 Hybrid HRM Score: +VE
[8]; [16]
  Partition Hybrid HRM Score ≥4, Aleo (2019): +VE (Partition Hybrid HRM Score ≥4)
  Partition Hybrid HRM Score ≥8, Aleo (2019): -VE
  Rule of Two hybrid HRM Score ≥3, Aleo (2019): +VE (Rule of Two hybrid HRM Score ≥3)
  Rule of Two hybrid HRM Score ≥8, Aleo (2019): -VE
hLiMTs [9]; [17]
  hLiMTs ATP <100uM: +VE (IC50 threshold of 100 µM)
hLiMTs [9]; hLiMTs, ATP, IC50 < 100 × Cmax.tot, ref Proctor et al. 2017
  hLiMTs/100xCmax, Proctor (2017): +VE (IC50 < 100 × Cmax.tot)
hLiMTs [9]; hLiMTs, ATP, IC50 threshold 100 µM, ref Proctor et al. 2017
  hLiMTs/100uM, Proctor (2017): +VE (IC50 threshold of 100 µM)
[10]; Bayesian modeling, ref Williams et al. 2019
  Bayesian Machine Learning DILI prediction, Williams (2019): +VE
[10]; In vitro Assay, ref Williams 2019
  Bayesian Machine Learning: +VE
PHH spheroids; In vitro Assay, ref Vorrink 2018
  hLiMTs ATP <20 x Cmax: +VE (IC20 < 20 × Cmax.tot cut-off)
PHH spheroids; PHH spheroids, ATP, 14 days, IC20 < 20 × Cmax.tot, ref Vorrink et al. 2018
  DILI in vitro assay prediction, Vorrink (2018): +VE (IC20 < 20 × Cmax.tot cut-off)
HepG2 cells [11]; In vitro Assay, ref Tolosa 2012
  Structural based (HCI): +VE
HepG2 cells [11]; Structural based (HCI), HepG2, ref Tolosa et al. 2012
  DILI in vitro assay prediction, Tolosa (2012): +VE
[12]
  THLE-Null: +VE
HepG2 cells [13]; [18]
  Cluser analysis: +VE
  Structural based (HCI): +VE
HepG2 cells [13]; Structural based (HCI), HepG2, ref Persson et al. 2013
  DILI in vitro assay prediction, Persson (2013): +VE
[14]
  DILI Score (FDA) (1-8): 2
Human hepatocytes; In vitro Assay, ref Xu 2008
  Structural based (HCI): +VE
Human hepatocytes; Structural based (HCI), human hepatocytes, ref Xu et al. 2008
  DILI in vitro assay prediction, Xu (2008): +VE
PHH; 2D PHH, ATP, IC50 < 100 × Cmax.tot, ref Proctor et al. 2017
  PHH/100xCmax, Proctor (2017): +VE (IC50 < 100 × Cmax.tot)
PHH; 2D PHH, ATP, IC50 threshold 100 µM, ref Proctor et al. 2017
  PHH/100uM, Proctor (2017): +VE (IC50 threshold of 100 µM)
PHH; [17]
  PHH ATP <100uM: +VE (IC50 threshold of 100 µM)
Upcyte human hepatocytes
  Upcytes multi donor assay 14day data: +VE
rBsep; In vitro Assay, ref Dawson 2012
  Inhibition of rBsep cutoff<1& cmax u>.2: -VE
rBsep
  Inhibition of rBsep cutoff<3: +VE
HepaRG spheroids; HepaRG, ATP endpoint, cut-off <25x Avg Cmax
  HepaRG <25x Avg Cmax ATP: +ve
HepaRG spheroids; HepaRG, ATP endpoint, cut-off <100x Avg Cmaxu
  HepaRG <100x Avg Cmaxu ATP: +ve (<100x Avg Cmaxu)
HepaRG spheroids; HepaRG, HCS endpoints, cut-off <25x Avg Cmax
  HepaRG <25x Avg Cmax HCS: +ve
HepaRG spheroids; HepaRG, HCS endpoints, cut-off <100x Avg Cmaxu
  HepaRG <100x Avg Cmaxu HCS: +ve (<100x Avg Cmaxu)
HepaRG spheroids; HepaRG, all endpoints (ATP and HCS), cut-off <25x Avg Cmax
  HepaRG <25x Avg Cmax All: +ve
HepaRG spheroids; HepaRG, all endpoints, Cmax max used
  HepaRG Cmax max All: +ve
HepaRG spheroids; HepaRG, all endpoints, Cmax min used
  HepaRG Cmax min All: +ve
HepaRG spheroids; HepaRG, all endpoints, cut-off <10 uM
  HepaRG <10 uM All: +ve (<10 uM)
HepaRG spheroids; HepaRG, all endpoints, cut-off <100x Avg Cmaxu
  HepaRG <100x Avg Cmaxu All: +ve (<100x Avg Cmaxu)
HepaRG spheroids; HepaRG, read-out: ATP endpoint AC50
  AC50: 6.33 µM
HepaRG spheroids; HepaRG, read-out: ATP endpoint MEC
  minimal effective concentration: 3.45 µM
HepaRG spheroids; HepaRG, read-out: HCS endpoint AC50
  AC50: 8.8 µM
HepaRG spheroids; HepaRG, read-out: HCS endpoint MEC
  minimal effective concentration: 1.72 µM
HepaRG spheroids; [19]
  DILI prediction HepaRG spheroids (HCS-MEC): +VE (MEC < 25 × Cmax.tot cut-off)
hLiMTs [15]; read-out: ATP endpoint AC50
  AC50: 3.73 µM
hLiMTs [15]; read-out: ATP endpoint MEC
  minimal effective concentration: 2.7 µM
hLiMTs [15]; read-out: HCS endpoint AC50
  AC50: 6.41 µM
hLiMTs [15]; read-out: HCS endpoint MEC
  minimal effective concentration: 2.47 µM
hLiMTs [15]; [19]
  DILI prediction hLiMTs (HCS-MEC): +VE (MEC < 25 × Cmax.tot cut-off)
hLiMTs [15]; hLiMTs, ATP endpoint, cut-off <25x Avg Cmax
  hLiMTs <25x Avg Cmax ATP: +ve
hLiMTs [15]; hLiMTs, ATP endpoint, cut-off <100x Avg Cmaxu
  hLiMTs <100x Avg Cmaxu ATP: +ve (<100x Avg Cmaxu)
hLiMTs [15]; hLiMTs, HCS endpoints, cut-off <25x Avg Cmax
  hLiMTs <25x Avg Cmax HCS: +ve
hLiMTs [15]; hLiMTs, HCS endpoints, cut-off <100x Avg Cmaxu
  hLiMTs <100x Avg Cmaxu HCS: +ve (<100x Avg Cmaxu)
hLiMTs [15]; hLiMTs, all endpoints (ATP and HCS), cut-off <25x Avg Cmax
  hLiMTs <25x Avg Cmax All: +ve
hLiMTs [15]; hLiMTs, all endpoints, Cmax max used
  hLiMTs Cmax max All: +ve
hLiMTs [15]; hLiMTs, all endpoints, Cmax min used
  hLiMTs Cmax min All: +ve
hLiMTs [15]; hLiMTs, all endpoints, cut-off <10 uM
  hLiMTs <10 uM All: +ve (<10 uM)
hLiMTs [15]; hLiMTs, all endpoints, cut-off <100x Avg Cmaxu
  hLiMTs <100x Avg Cmaxu All: +ve (<100x Avg Cmaxu)
